The NIST ThermoML archive (doi:10.1016/j.jct.2012.09.028)

Test: molar heat capacity at constant pressure
Details: 101.33 kPa, Crystal, Vacuum adiabatic calorimetry

O=C[C@H](O)[C@@H](O)[C@H](O)CO [D-xylose]
Details | molar heat capacity at constant pressure [J/K/mol]
0.5 K | 0.0003448
1 K | 0.0013
1.5 K | 0.003533
1.9 K | 0.006645
2 K | 0.007825
2.04 K | 0.008242
2.083 K | 0.008788
2.243 K | 0.01097
2.3 K | 0.01187
2.472 K | 0.01471
2.5 K | 0.01512
2.538 K | 0.01596
2.632 K | 0.01783
2.787 K | 0.02124
2.901 K | 0.02401
3 K | 0.02656
3.078 K | 0.02907
3.204 K | 0.03288
3.413 K | 0.04037
3.5 K | 0.04351
3.544 K | 0.04525
3.773 K | 0.05561
3.939 K | 0.06374
4 K | 0.06758
4.203 K | 0.07931
4.383 K | 0.09097
4.5 K | 0.1006
4.66 K | 0.1124
4.87 K | 0.1305
5 K | 0.1446
5.179 K | 0.1619
5.436 K | 0.1916
5.5 K | 0.2018
5.775 K | 0.2386
6 K | 0.2744
6.082 K | 0.2866
6.466 K | 0.3591
6.5 K | 0.3648
6.745 K | 0.4181
7 K | 0.4752
7.159 K | 0.5189
7.497 K | 0.6119
7.5 K | 0.6076
7.959 K | 0.7584
8 K | 0.7638
8.353 K | 0.8969
8.5 K | 0.945
8.863 K | 1.101
9 K | 1.152
9.3 K | 1.292
9.5 K | 1.385
9.864 K | 1.569
10 K | 1.644
10.35 K | 1.83
10.97 K | 2.212
11 K | 2.219
11.52 K | 2.546
12 K | 2.871
12.19 K | 2.736
12.72 K | 3.408
13 K | 3.59
13.56 K | 4.028
14 K | 4.364
14.25 K | 4.551
15 K | 5.182
15.07 K | 5.238
15.84 K | 5.872
16 K | 6.036
16.59 K | 6.471
17 K | 6.917
17.61 K | 7.437
18 K | 7.819
18.42 K | 8.194
18.99 K | 8.794
19 K | 8.734
20 K | 9.657
20.27 K | 9.969
21.17 K | 10.74
22.58 K | 12.06
23.64 K | 13.08
25 K | 14.25
25.13 K | 14.39
26.29 K | 15.41
27.98 K | 16.85
29.32 K | 17.97
30 K | 18.55
31.15 K | 19.42
32.68 K | 20.56
34.69 K | 22.14
35 K | 22.47
36.33 K | 23.55
38.59 K | 25.09
